Series [1] deals with stratum corneum of pig skin. The settings on record: stratum corneum immersed in 5% solution; weight at 90% relative humidity vs dry weight at 0% relative humidity. The text has this: The epidermis of full thickness pig skin (Animal Technologies, Tyler, Tex.) was removed using a Packard Instruments dermatome, and the stratum corneum was removed via trypsin digestion. Pieces of stratum corneum were then immersed in millipore water, a 5% choline chloride (Aldrich Chemical, Milwaukee, Wis.), or a 5% glycerin solution. Using a dynamic vapour sorption meter (Surface Measurement Systems, Coopersburg, Pa.), the skin was equilibrated under a 0% relative humidity environment until the change in weight varied no more than 0.005% per min. This weight was recorded as the dry weight. The relative humidity was then increased to 90%. The skin was equilibrated at this humidity until the change in weight varied no more than 0.005% per min. This weight was, likewise, recorded and the % water uptake was calculated.

The subject of series [2] is Full thickness Yucatan swine skin. The settings on record: (3H3C)-choline in 25% shower gel solution (100 mg choline chloride per 20 ml); two 5 minute applications, each rinsed with 10 ml distilled water.
Experimental: The radiolabelling experiment described in this example was carried out to quantify the amount of choline that could adhere to the skin following a water rinse. Full thickness Yucatan swine skin (Charles River, Inc., Wilmington, Mass.) was mounted (dermis side down) onto a special sample holder, the dimensions of which were previously described in U.S. Pat. No. 4,836,014. This sample holder exposed approximately 4.91 cm^2 of the skin. A 1 ml aliquot of (^3H3C)-choline (American Radiolabel Chemicals, Inc., St. Louis, Mo.) containing shower gel was next applied to the surface of the exposed skin. […] After five minutes had elapsed, the shower gel was removed, and the surface of the skin was rinsed with 10 ml of distilled water. A second 1 ml aliquot of the (^3H3C)-choline containing shower gel was then reapplied to the skin. Again, after a 5 minute exposure time, the shower gel was removed and the skin rinsed with 10 ml of distilled water. The skin sample was then removed from its sample holder and air-dried for 10 minutes. Four 4 mm diameter punches were collected from each piece of treated skin, oxidized in a Packard oxidizer, and counted in a Packard 2000 Tri-carb liquid scintillation analyzer (Packard Instruments Inc., Downers Grove, Ill.). To obtain the specific activity, 0.1 ml of the (^3H3C)-choline containing shower gel was counted in the Packard 2000 analyzer.

SMILES strings stand for the structures.

Take `C[N+](C)(C)CCO.[Cl-]` [5% Choline, choline chloride]: the “% Water Uptake” value in series [1] is on record as 89 ± 14%. Also, the “amount of choline remaining on the skin following a water rinse” value in series [2] turned out to be 33 μg/cm^2.

`OCC(O)CO` [5% Glycerin, glycerin, reference compound]: the “% Water Uptake” value in series [1] is listed as 75 ± 6%.

For the origin of these results see patent publication US20020010113A1, “Composition” (Colgate-Palmolive Company, priority 1999, published 2002).
